# Values joined by “and” are separate entries in the source; they are usually repeats but may differ in a detail not shown here. Equal values may be shown once. Read-outs that look alike come from different tables or passages of the source.
# Legend:
# [1] = target: T1, KCNQ2/3 channels expressed in CHO cells (Mus musculus, UniProt Q8K3F6+Q9Z351); assay: Whole-cell patch clamp of transfected CHO cells; format: cell-based; details: 100 µM GABA
# T1 construct: expressed in transfected cells; host or cells: CHO cells (ATCC), transient transfection with TransIT-LT1
# Procedure: (§1) CHO cells (ATCC) were seeded on poly-L-lysine-treated glass coverslips in 24-well plates and transfected the next day using 0.5 µg each of mouse KCNQ2 and KCNQ3 cDNA in a CMV vector per well in normal media (DMEM with 10% FBS and 1% penicillin/streptomycin). The transfection reagent used was TransIT-LT1 (Mirus Bio LLC, Madison, WI, USA) and cells were patched 48–72 h post transfection. […] Media was replenished every 3 days and cultures were split once a week. […] Cell culture plastic ware and reagents were purchased from VWR and Fisher Scientific unless otherwise stated.
# (§2) For both CHO cells and PC12 cells, currents were recorded in whole-cell mode at room temperature (22–25 °C) with 3–6 MΩ borosilicate glass electrodes backfilled with solution containing (in mM): 90 K acetate, 20 KCl, 40 HEPES, 3 MgCl2, 1 CaCl2, 3 EGTA-KOH, 2 MgATP; pH 7.2.
# (§3) The pClamp8 (Molecular Devices) software package was used for data acquisition and Clampfit was used for analysis, along with Graphpad Prism 7.0 (Graphpad).
# [2] = system: native M-current in PC12 cells; assay: Whole-cell patch clamp of NGF-differentiated PC12 cells; format: cell-based, rat; details: 100 µM GABA + 100 µM picrotoxin + 10 µM CGP55845
# Procedure: as §1, §2, §3
# [3] = system: native M-current in mouse DRG neurons; assay: Perforated patch-clamp of dorsal root ganglion neurons; format: cell-based; details: 100 µM GABA
# Procedure: Adult male mice were purchased from Jackson Labs and then housed and used according to a protocol approved by the Institutional Animal Care and Use Committee of University of California, Irvine, and consistent with recommendations in the NIH Guide for the Care and Use of Laboratory Animals (8th edition, 2011). […]. DRG neurons were then cultured on poly-L-lysine and laminin-coated plastic coverslips in RPMI 1640 with 10% horse serum and 1% penicillin/streptomycin at 37 °C for 1–4 days before electrophysiological recordings were performed using perforated patch clamp. Amphotericin B (VWR, Radnor, PA) was dissolved in DMSO at 5 mg/ml (stock solution), then diluted to 150–200 µg/ml in intracellular solution and sonicated with a probe sonicator on ice for 5 s, kept at room temperature in the dark, and replaced every hour with a fresh solution from the stock. The working amphotericin solution was backfilled into borosilicate glass electrodes (3–5 MΩ) previously tip-filled to ~0.5 mm with intracellular solution lacking amphotericin B, immediately prior to sealing onto individual neurons. After whole-cell configuration was achieved and capacitance stabilized, whole-cell recordings were performed essentially as described in the prior paragraph, with the following differences: neurons were held at −20 mV to inactivate other channels before the test pulses; offline leak subtraction was performed.
# [4] = target: KCNA1 (Kv1.1) (Homo sapiens, UniProt Q09470); assay: TEVC in Xenopus oocytes; format: cell-based; details: for Slope: Ctrl 6.2 ± 0.4; for Normalized tail current V0.5: Ctrl -29.8 ± 0.69
# Text: Chemicals were sourced from Sigma.
# [5] = target: KCNQ3* (expression-optimized KCNQ3-A315T mutant) (Homo sapiens, UniProt O43525, A315T); details: for Slope: Ctrl 4.5 ± 0.9; for Normalized tail current V0.5: Ctrl -51.4 ± 1.9; for Non-normalized tail current V0.5: Ctrl -47.5 ± 4.4
# Text: (§4) cRNA transcripts encoding human KCNQ1, KCNQ2, KCNQ3, KCNQ4, KCNQ5, KCNA1, or KCNE1 were generated by in vitro transcription using the T7 polymerase mMessage mMachine kit (Thermo Fisher Scientific), after vector linearization, from complementary DNA (cDNA) sub-cloned into plasmids incorporating Xenopus laevis β-globin 5′ and 3′ untranslated regions flanking the coding region to enhance translation and cRNA stability. cRNA was quantified by spectrophotometry. […] Defolliculated stage V and VI Xenopus laevis oocytes (Ecocyte Bioscience, Austin, TX) were injected with Kv channel α subunit cRNAs (5–10 ng).
# (§5) Oocytes were placed in a small-volume oocyte bath (Warner) and viewed with a dissection microscope. Chemicals were sourced from Sigma. Bath solution was (in mM): 96 NaCl, 4 KCl, 1 MgCl2, 1 CaCl2, 10 HEPES (pH 7.6). […] Valeric acid was stored as a 5 mM stock in Ringer’s solution at 4 °C and diluted to working concentrations each experimental day. β-hydroxybutyric acid was stored at 4 °C as a 480 mM stock in 100% ethanol and diluted to working concentrations each experimental day. All compounds were introduced to the recording bath via gravity perfusion at a constant flow of 1 ml per min for 3 min prior to recording. Pipettes were of 1–2 MΩ resistance when filled with 3 M KCl. Currents were recorded in response to pulses between −80 mV and +40 mV at 20 mV intervals, or a single pulse to +40 mV, from a holding potential of −80 mV, to yield current-voltage relationships, current magnitude, and for quantifying activation rate. Deactivation was recorded at −80 mV after a single activating pulse to +40 mV, from a holding potential of −80 mV. […] TEVC data analysis was performed with Clampfit (Molecular Devices) and Graphpad Prism software (GraphPad, San Diego, CA, USA); values are stated as mean ± SEM. Normalized tail currents were plotted versus prepulse voltage and fitted with a single Boltzmann function:1 g=(A1-A2)/1+expV1/2-V∕VS+A2, where g is the normalized tail conductance, A1 is the initial value at −∞, A2 is the final value at +∞, V1/2 is the half-maximal voltage of activation, and VS the slope factor. Activation and deactivation kinetics were fitted with single exponential functions.
# [6] = target: homomeric wild-type human KCNQ3 (Homo sapiens, UniProt O43525); assay: 3H-GABA radioligand binding (single concentration, cold competition, saturation) in Xenopus oocytes; details: cold (unlabeled) GABA 1 mM
# Procedure: Defolliculated stage V and VI Xenopus laevis oocytes (Ecocyte Bioscience, Austin, TX) were injected with Kv channel α subunit cRNAs (5–10 ng).
# Oocytes were then washed four times in 16 °C ND96, then transferred to individual wells in a 96-well plate and lysed in 0.2% SDS in ND96. Each oocyte lysate was transferred to a scintillation vial containing 5 ml cytoscint scintillation cocktail fluid (MP Biomedicals, Santa Ana, CA). Vials were capped, shaken, and then allowed to sit at room temperature for at least 30 min before scintillation counting in a Beckmann Coulter LS6500 liquid scintillation counter. […] Oocytes were next incubated in 1 ml per group homogenization buffer (in mM, 150 NaCl, 2 CaCl2, 20 Tris, 2% Nonidet P-40) with 2% protease inhibitor cocktail (Pierce) and then lysed with a 20 ml pipette tip, vortexed, centrifuged at 4000 r.p.m. (10 min, 4 °C). The supernatant was mixed in Eppendorf tubes end-over-end overnight at 4 °C with high-capacity streptavidin agarose beads (Thermo Fisher, Huntington Beach, CA) (20 µl per group).
# For the binding competition assay, the control group was treated as before. […] Each oocyte lysate was transferred to a scintillation vial containing 5 ml cytoscint scintillation cocktail fluid (MP Biomedicals). […] Bmax and Kd values were calculated using automated nonlinear regression analysis in GraphPad prism.
# [7] = target: KCNQ1-KCNE1 (Homo sapiens, UniProt P51787); assay: TEVC and resting membrane potential in Xenopus oocytes; format: cell-based
# Text: as §4, §5
# [8] = system: water-injected Xenopus laevis oocytes; assay: TEVC of water-injected oocytes (endogenous currents, EM); format: cell-based
# Text: Chemicals were sourced from Sigma. […] […].
# [9] = target: KCNQ4 (Homo sapiens, UniProt P56696); assay: TEVC in Xenopus oocytes; format: cell-based; details: for Non-normalized tail current V0.5: Ctrl 8.6 ± 4.3; for Normalized tail current V0.5: Ctrl -8.7 ± 0.8
# Text: as §4, §5
# [10] = target: KCNQ1 (Homo sapiens, UniProt P51787); assay: Two-electrode voltage clamp (TEVC) in Xenopus oocytes
# Text: as §4
# Oocytes were placed in a small-volume oocyte bath (Warner) and viewed with a dissection microscope. Chemicals were sourced from Sigma. Bath solution was (in mM): 96 NaCl, 4 KCl, 1 MgCl2, 1 CaCl2, 10 HEPES (pH 7.6). […] Valeric acid was stored as a 5 mM stock in Ringer’s solution at 4 °C and diluted to working concentrations each experimental day. β-hydroxybutyric acid was stored at 4 °C as a 480 mM stock in 100% ethanol and diluted to working concentrations each experimental day. All compounds were introduced to the recording bath via gravity perfusion at a constant flow of 1 ml per min for 3 min prior to recording. Pipettes were of 1–2 MΩ resistance when filled with 3 M KCl. Currents were recorded in response to pulses between −80 mV and +40 mV at 20 mV intervals, or a single pulse to +40 mV, from a holding potential of −80 mV, to yield current-voltage relationships, current magnitude, and for quantifying activation rate. Deactivation was recorded at −80 mV after a single activating pulse to +40 mV, from a holding potential of −80 mV. For wortmannin studies, oocytes were incubated in 30 µM wortmannin for 3 h at 16 °C prior to recording. TEVC data analysis was performed with Clampfit (Molecular Devices) and Graphpad Prism software (GraphPad, San Diego, CA, USA); values are stated as mean ± SEM. […]
# [11] = target: KCNQ5 (Homo sapiens, UniProt Q9NR82); assay: TEVC in Xenopus oocytes; format: cell-based; details: for Slope: Ctrl 9.6 ± 1.9; for Normalized tail current V0.5: Ctrl -41.7 ± 1.5; for Non-normalized tail current V0.5: Ctrl -[…]
# Text: as §4, §5
# [12] = especially at subthreshold potentials
# KCNA1 (Kv1.1), sequence (Q09470 whole entry): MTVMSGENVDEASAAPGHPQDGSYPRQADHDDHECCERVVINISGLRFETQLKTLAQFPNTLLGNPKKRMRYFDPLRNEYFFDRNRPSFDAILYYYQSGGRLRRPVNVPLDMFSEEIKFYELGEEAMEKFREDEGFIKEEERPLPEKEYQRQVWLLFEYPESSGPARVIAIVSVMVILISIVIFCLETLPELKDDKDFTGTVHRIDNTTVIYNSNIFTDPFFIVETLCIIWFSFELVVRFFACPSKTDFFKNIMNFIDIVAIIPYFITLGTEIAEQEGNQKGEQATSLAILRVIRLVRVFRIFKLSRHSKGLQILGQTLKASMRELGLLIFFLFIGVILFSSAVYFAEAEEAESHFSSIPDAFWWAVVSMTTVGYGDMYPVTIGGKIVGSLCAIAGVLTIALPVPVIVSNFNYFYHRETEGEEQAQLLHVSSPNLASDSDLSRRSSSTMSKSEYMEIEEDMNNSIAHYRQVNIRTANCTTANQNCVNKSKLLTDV
# homomeric wild-type human KCNQ3, sequence (O43525 whole entry): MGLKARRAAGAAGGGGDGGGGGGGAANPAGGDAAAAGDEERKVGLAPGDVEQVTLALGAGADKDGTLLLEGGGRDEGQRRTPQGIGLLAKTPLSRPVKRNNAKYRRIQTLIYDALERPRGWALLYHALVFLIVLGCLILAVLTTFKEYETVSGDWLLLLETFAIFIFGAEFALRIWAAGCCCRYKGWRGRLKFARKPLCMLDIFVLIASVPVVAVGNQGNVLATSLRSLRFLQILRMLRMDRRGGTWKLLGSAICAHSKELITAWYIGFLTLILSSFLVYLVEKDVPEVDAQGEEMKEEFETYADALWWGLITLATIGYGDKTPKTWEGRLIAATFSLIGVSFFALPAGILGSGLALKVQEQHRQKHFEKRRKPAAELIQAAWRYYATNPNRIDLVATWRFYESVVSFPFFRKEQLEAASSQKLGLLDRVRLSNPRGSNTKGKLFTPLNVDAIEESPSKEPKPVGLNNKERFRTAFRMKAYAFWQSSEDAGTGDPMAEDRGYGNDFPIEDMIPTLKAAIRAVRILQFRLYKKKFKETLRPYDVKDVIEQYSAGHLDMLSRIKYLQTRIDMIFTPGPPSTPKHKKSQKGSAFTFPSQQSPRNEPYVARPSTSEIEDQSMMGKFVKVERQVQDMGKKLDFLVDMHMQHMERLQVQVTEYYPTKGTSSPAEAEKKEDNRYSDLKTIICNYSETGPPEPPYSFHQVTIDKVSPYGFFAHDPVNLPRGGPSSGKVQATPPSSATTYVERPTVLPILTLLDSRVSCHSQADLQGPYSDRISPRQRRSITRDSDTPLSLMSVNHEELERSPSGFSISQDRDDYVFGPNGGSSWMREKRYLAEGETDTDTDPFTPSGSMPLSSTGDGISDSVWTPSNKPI
compound,measurement,setting,value
"NCCCC(=O)O [GABA, γ-aminobutyric acid]",Slope,[1]; Ctrl 14.3 ± 1.6,16.2 ± 3.0 mV
same,Normalized tail current V0.5,[1]; Ctrl -2.9 ± 2.7,-17.5 ± 3.7 mV and −17.5 mV
same,Slope,[2]; blockers alone 17.4 ± 3.0,16.0 ± 3.2 mV
same,Normalized tail current V0.5,[2]; blockers alone -7.1 ± 7.6,-20.6 ± 4.9 mV
same,decrease of deactivating current at −60 mV,[3],~ 25%
same,mean GABA-dependent change in current,[3]; at −20 mV,no mean change
same,mean GABA-dependent current increase,"[3]; at −60 mV, picrotoxin + CGP55845 present",threefold
same,Slope,[4]; 0.1 µM GABA,6.4 ± 0.5 mV
same,Normalized tail current V0.5,[4]; 0.1 µM GABA,-29.3 ± 0.88 mV
same,Slope,[4]; 1 µM GABA,6.1 ± 0.5 mV
same,Normalized tail current V0.5,[4]; 1 µM GABA,-28.4 ± 0.89 mV
same,Slope,[4]; 10 µM GABA,6.1 ± 0.5 mV
same,Normalized tail current V0.5,[4]; 10 µM GABA,-27.6 ± 0.82 mV
same,Slope,[4]; 100 µM GABA,6.2 ± 0.4 mV
same,Normalized tail current V0.5,[4]; 100 µM GABA,-27.2 ± 0.67 mV
same,Slope,[4]; 1 mM GABA,6.4 ± 0.6 mV
same,Normalized tail current V0.5,[4]; 1 mM GABA,-27.3 ± 0.93 mV
same,effect on peak current or normalized tail current,[4]; GABA 1 mM,no effect
same,"efficacy of channel activation, KCNQ3* compared to KCNQ5",[5],more than threefold greater
same,Slope,[5]; 0.1 µM GABA,4.6 ± 0.9 mV
same,Normalized tail current V0.5,[5]; 0.1 µM GABA,-54.2 ± 1.5 mV
same,Slope,[5]; 1 µM GABA,4.3 ± 0.8 mV
same,Slope,[5]; 10 µM GABA,4.3 ± 3.5 mV
same,Non-normalized tail current V0.5,[5]; 10 µM GABA,-58.4 ± 2.7 mV
same,Normalized tail current V0.5,[5]; 10 µM GABA,-58.9 ± 1.0 mV
same,Slope,[5]; 100 µM GABA,4.8 ± 3.0 mV
same,Non-normalized tail current V0.5,[5]; 100 µM GABA,-59.4 ± 2.8 mV
same,Normalized tail current V0.5,[5]; 100 µM GABA,-59.8 ± 0.9 mV
same,Slope,[5]; 1 mM GABA,4.7 ± 3.3 mV
same,Non-normalized tail current V0.5,[5]; 1 mM GABA,-59.3 ± 2.5 mV
same,Normalized tail current V0.5,[5]; 1 mM GABA,-59.6 ± 0.9 mV
same,effect on channel,[5]; [12],activates
same,competition of 3H-GABA binding,[6],outcompeted
same,Normalized tail current V0.5,"[7]; 100 µM GABA, Ctrl 6.1 ± 0.8",3.3 ± 1.2 mV
same,Non-normalized tail current V0.5,"[7]; 100 µM GABA, Ctrl 6.3 ± 2.6",3.1 ± 2.7 mV
same,Slope,"[7]; 100 µM GABA, Ctrl 14 ± 0.7",13.2 ± 0.9 mV
same,effect on KCNQ1-KCNE1 activity,[7]; GABA 100 µM,no effect
same,effect on resting membrane potential (EM),"[7]; GABA 100 µM, unclamped oocytes",does not alter
same,effect on endogenous currents or resting membrane potential,[8]; GABA 100 µM,no effect
same,effect on water-injected oocytes,[8]; GABA 1 mM,neither did increasing GABA to 1 mM produce any noticeable effects
same,GABA sensitivity of channel activity,[9],relatively GABA-insensitive
same,Non-normalized tail current V0.5,[9]; 0.1 µM GABA,-8.8 ± 4.3 mV
same,Normalized tail current V0.5,[9]; 0.1 µM GABA,-9.6 ± 0.7 mV
same,Non-normalized tail current V0.5,[9]; 1 µM GABA,-9.0 ± 4.3 mV
same,Normalized tail current V0.5,[9]; 1 µM GABA,-9.6 ± 0.8 mV
same,Non-normalized tail current V0.5,[9]; 10 µM GABA,-9.3 ± 3.7 mV
same,Normalized tail current V0.5,[9]; 10 µM GABA,-9.8 ± 0.8 mV
same,Non-normalized tail current V0.5,[9]; 100 µM GABA,-9.0 ± 3.8 mV
same,Normalized tail current V0.5,[9]; 100 µM GABA,-10.3 ± 0.8 mV
same,Non-normalized tail current V0.5,[9]; 1 mM GABA,-8.4 ± 3.4 mV
same,Normalized tail current V0.5,[9]; 1 mM GABA,-8.8 ± 0.8 mV
same,GABA sensitivity of channel activity,[10],relatively GABA-insensitive
same,Non-normalized tail current V0.5,"[10]; 100 µM GABA, Ctrl -30.1 ± 2.2",-32.6 ± 1.9 mV
same,Normalized tail current V0.5,"[10]; 100 µM GABA, Ctrl -34.1 ± 0.9",-34.2 ± 0.8 mV
same,Slope,[11]; 0.001 µM GABA,9.4 ± 4.3 mV
same,Normalized tail current V0.5,[11]; 0.001 µM GABA,-41.9 ± 2.9 mV
same,Non-normalized tail current V0.5,[11]; 0.001 µM GABA,-41.8 ± 2.8 mV
same,Slope,[11]; 0.01 µM GABA,7.6 ± 2.4 mV
same,Normalized tail current V0.5,[11]; 0.01 µM GABA,-50.1 ± 2.9 mV
same,Non-normalized tail current V0.5,[11]; 0.01 µM GABA,-49.5 ± 2.5 mV
same,Slope,[11]; 0.1 µM GABA,7.4 ± 1.2 mV
same,Normalized tail current V0.5,[11]; 0.1 µM GABA,-53.9 ± 1.7 mV
same,Non-normalized tail current V0.5,[11]; 0.1 µM GABA,-51.3 ± 2.1 mV
same,Slope,[11]; 1 µM GABA,7.6 ± 1.2 mV
same,Normalized tail current V0.5,[11]; 1 µM GABA,-54.2 ± 1.6 mV
same,Non-normalized tail current V0.5,[11]; 1 µM GABA,-51.2 ± 2.6 mV
same,Slope,[11]; 10 µM GABA,8.4 ± 1.4 mV
same,Normalized tail current V0.5,[11]; 10 µM GABA,-57.0 ± 1.8 mV
same,Non-normalized tail current V0.5,[11]; 10 µM GABA,-54.5 ± 2.3 mV
same,Slope,[11]; 100 µM GABA,8.5 ± 1.5 mV
same,Normalized tail current V0.5,[11]; 100 µM GABA,-57.4 ± 1.8 mV
same,Non-normalized tail current V0.5,[11]; 100 µM GABA,-54.5 ± 2.7 mV
same,Slope,[11]; 1 mM GABA,8.8 ± 1.5 mV
same,Normalized tail current V0.5,[11]; 1 mM GABA,-58.3 ± 1.8 mV
same,Non-normalized tail current V0.5,[11]; 1 mM GABA,-56.4 ± 2.4 mV
same,higher GABA sensitivity of KCNQ5 than KCNQ3*,[11]; EC50 ratio at −60 mV,17 fold
same,EC50,[11]; at −60 mV,60 ± 10 nM
same,effect on channel,[11]; [12],activates

# Reference: publication PMC5945843, “Direct neurotransmitter activation of voltage-gated potassium channels” (Nature Communications, 2018)
